Reference: patent US10112941B2, “Tricyclic compounds as anticancer agents” (BRISTOL-MYERS SQUIBB COMPANY, priority 2013, dated 2018)

Molecular target: BRD4 (Homo sapiens, UniProt O60885)
Assay: Time Resolved Fluorescence Resonance Energy Transfer (TR-FRET) binding assay, BRD4
Conditions: one of the FRET assays described; read-out: FRET BRD4 IC50

| SMILES | IC50 [nM] |
| --- | --- |
| Cc1noc(C)c1-c1cnc2c3ccc(C(C)(C)O)cc3n(C(c3ccccc3)C3(F)CCC3)c2c1 (single isomer, unassigned) [Example 32, 2-[3-(Dimethyl-1,2-oxazol-4-yl)-5-[(1-fluorocyclobutyl)(phenyl)methyl]-5H-pyrido[3,2-b]indol-7-yl]propan-2-ol] | < 5 |
| Cc1nnn(C)c1-c1cnc2c3ccc(C(C)(C)O)cc3n(C(c3cccnn3)C3CCOCC3)c2c1 (single isomer, unassigned) [Example 296] | < 5 |
| Cc1nnn(C)c1-c1cnc2c3ccc(C(C)(C)O)cc3n([C@H](c3ccc(F)cc3)C3CCOCC3)c2c1 [Example 72] | < 25 |
| [2H]C([2H])([2H])c1nnn(C)c1-c1cnc2c3c(NCC(C)(C)N)ccc(S(C)(=O)=O)c3n([C@H](c3ccccc3)C3CCOCC3)c2c1 [Example 226, N-(2-Amino-2-methylpropyl)-6-methanesulfonyl-3-[4-(^2H3)methyl-1-methyl-1H-1,2,3-triazol-5-yl]-5-[(S)-oxan-4-yl(phenyl)methyl]-5H-pyrido[3,2-b]indol-9-amine] | < 5 |
| Cc1nnn(C)c1-c1cnc2c3c(F)cc(C(C)(C)O)cc3n(C(c3cccc(F)c3F)C3CCOCC3)c2c1 (single isomer, unassigned) [Example 109, 2-{5-[(2,3-Difluorophenyl)(oxan-4-yl)methyl]-3-(dimethyl-1H-1,2,3-triazol-5-yl)-9-fluoro-5H-pyrido[3,2-b]indol-7-yl}propan-2-ol] | < 5 |
| Cc1nnn(C)c1-c1cnc2c3c(F)cc(C(C)(C)O)cc3n(C(c3cccc(F)c3F)C3CCOCC3)c2c1 (single isomer, unassigned) [Example 108, 2-{5-[(2,3-Difluorophenyl)(oxan-4-yl)methyl]-3-(dimethyl-1H-1,2,3-triazol-5-yl)-9-fluoro-5H-pyrido[3,2-b]indol-7-yl}propan-2-ol] | < 5 |
| Cc1nnn(C)c1-c1cnc2c3c(S(C)(=O)=O)cccc3n([C@H](c3ccccc3)C3CCOCC3)c2c1 [Example 259, 5-{9-Methanesulfonyl-5-[(S)-oxan-4-yl(phenyl)methyl]-5H-pyrido[3,2-b]indol-3-yl}-1,4-dimethyl-1H-1,2,3-triazole] | < 5 |
| Cc1nnn(C)c1-c1cnc2c3ccc(C(C)(C)O)c(F)c3n(C(c3ccncc3F)C3CCOCC3)c2c1 (single isomer, unassigned) [Example 289] | < 5 |
| Cc1nnn(C)c1-c1cnc2c3ccc(C4(O)COC4)cc3n([C@H](c3ccc(F)cc3)C3CCOCC3)c2c1 [Example 243, 3-[3-(Dimethyl-1H-1,2,3-triazol-5-yl)-5-[(S)-(4-fluorophenyl)(oxan-4-yl)methyl]-5H-pyrido[3,2-b]indol-7-yl]oxetan-3-ol] | < 5 |
| [2H]C([2H])([2H])c1nnn(C)c1-c1cnc2c3c(OCC(C)(F)F)ccc(S(C)(=O)=O)c3n([C@H](c3ccccc3)C3CCOCC3)c2c1 [Example 230, 5-[9-(2,2-Difluoropropoxy)-6-methanesulfonyl-5-[(S)-oxan-4-yl(phenyl)methyl]-5H-pyrido[3,2-b]indol-3-yl]-4-(^2H3)methyl-1-methyl-1H-1,2,3-triazole] | < 5 |
| COc1cc2c3ncc(-c4c(C)nnn4C)cc3n([C@H](c3ccc(F)cc3)C3CCOCC3)c2cc1C(C)(C)O [Example 353, 2-[3-(Dimethyl-1H-1,2,3-triazol-5-yl)-5-[(S)-(4-fluorophenyl)(oxan-4-yl)methyl]-8-methoxy-5H-pyrido[3,2-b]indol-7-yl]propan-2-ol] | < 5 |
| [2H]C([2H])([2H])c1nnn(C)c1-c1cnc2c3c(NCCCC(=O)O)ccc(S(C)(=O)=O)c3n([C@H](c3ccccc3)C3CCOCC3)c2c1 [Example 225, 4-({6-Methanesulfonyl-3-[4-(^2H3)methyl-1-methyl-1H-1,2,3-triazol-5-yl]-5-[(S)-oxan-4-yl(phenyl)methyl]-5H-pyrido[3,2-b]indol-9-yl}amino)butanoic acid] | < 25 |
| Cc1nnn(C)c1-c1cnc2c3ccc(C(C)(C)O)cc3n(C(c3cccc(F)c3)C3CCOCC3)c2c1 (single isomer, unassigned) [Example 100, 2-[3-(Dimethyl-1H-1,2,3-triazol-5-yl)-5-[(3-fluorophenyl)(oxan-4-yl)methyl]-5H-pyrido[3,2-b]indol-7-yl]propan-2-ol] | < 5 |
| COc1nnn(C)c1-c1cnc2c3ccc(C(C)(O)C4CC4)c(F)c3n([C@H](c3ccccc3)C3CCOCC3)c2c1 (stereo partly drawn) [Example 439, 1-Cyclopropyl-1-[6-fluoro-3-(4-methoxy-1-methyl-1H-1,2,3-triazol-5-yl)-5-[(S)-oxan-4-yl(phenyl)methyl]-5H-pyrido[3,2-b]indol-7-yl]ethan-1-ol] | < 5 |
| Cc1nocc1-c1cnc2c3ccc(C(C)(C)O)cc3n(C(c3ccc(F)cc3)C3CCOCC3)c2c1 (single isomer, unassigned) [Example 43, 2-{5-[(4-Fluorophenyl)(oxan-4-yl)methyl]-3-(3-methyl-1,2-oxazol-4-yl)-5H-pyrido[3,2-b]indol-7-yl}propan-2-ol] | < 1500 |
| [2H]C([2H])([2H])c1nnn(C)c1-c1cnc2c3ccc(C(C)(C)O)c(F)c3n([C@H](c3ccccc3F)C3CCOCC3)c2c1 [Example 272, 2-{6-Fluoro-5-[(S)-(2-fluorophenyl)(oxan-4-yl)methyl]-3-[4-(^2H3)methyl-1-methyl-1H-1,2,3-triazol-5-yl]-5H-pyrido[3,2-b]indol-7-yl}propan-2-ol] | < 5 |
| [2H]C([2H])([2H])c1nnn(C)c1-c1cnc2c3c(F)ccc(S(C)(=O)=O)c3n([C@H](c3ccc(F)cc3)C3CCOCC3)c2c1 [Example 233, 5-{9-Fluoro-5-[(S)-(4-fluorophenyl)(oxan-4-yl)methyl]-6-methanesulfonyl-5H-pyrido[3,2-b]indol-3-yl}-4-(^2H3)methyl-1-methyl-1H-1,2,3-triazole] | < 5 |
| Cc1nnn(C)c1-c1cnc2c3ccc(C(C)(O)C4CC4)cc3n([C@H](c3ccccc3)C3CCOCC3)c2c1 (single isomer, unassigned) [Example 423] | < 5 |
| Cc1noc(C)c1-c1cnc2c3ccc(C(C)(C)O)cc3n(C(c3cc(F)ccc3F)C3CCOCC3)c2c1 (single isomer, unassigned) [Example 140, 2-{5-[(2,5-Difluorophenyl)(oxan-4-yl)methyl]-3-(dimethyl-1,2-oxazol-4-yl)-5H-pyrido[3,2-b]indol-7-yl}propan-2-ol] | < 5 |
| Cc1noc(C)c1-c1cnc2c3ccc(C(C)(C)O)cc3n(C(c3ccc(F)cc3F)C3CCOCC3)c2c1 (single isomer, unassigned) [Example 125, 2-{5-[(2,4-Difluorophenyl)(oxan-4-yl)methyl]-3-(dimethyl-1,2-oxazol-4-yl)-5H-pyrido[3,2-b]indol-7-yl}propan-2-ol] | < 5 |
| [2H]C([2H])([2H])c1nnn(C)c1-c1cnc2c3ccc(C(C)(C)O)cc3n(C(c3ncccc3Cl)C3CCOCC3)c2c1 (single isomer, unassigned) [Example 321] | < 5 |
| [2H]C([2H])([2H])c1nnn(C)c1-c1cnc2c3c(OC)cc(S(C)(=O)=O)cc3n([C@H](c3ccc(F)cc3)C3CCOCC3)c2c1 [Example 202, 5-{5-[(S)-(4-Fluorophenyl)(oxan-4-yl)methyl]-7-methanesulfonyl-9-methoxy-5H-pyrido[3,2-b]indol-3-yl}-4-(^2H3)methyl-1-methyl-1H-1,2,3-triazole] | < 5 |
